From patent US20230398130A1, “METHODS AND COMPOSITIONS FOR DIFFERENTIATING STEM CELLS” (Massachusetts Institute of Technology, priority 2020, published 2023) come the findings set out here.

Experiment [1] deals with human small intestinal organoids. As to the kind of experiment: Immunofluorescent imaging for LYZ, human small intestinal organoids. To be noted: 160 nM KPT-330, 6 days. The class given is cell-based.
Description: To extend the observations from the murine organoid system, Applicants sought to examine how XPO1 inhibition via KPT-330 may effect human small intestinal stem cells by utilizing a stem-cell enriched human small intestinal organoid model^46 (see Methods).
Immunofluorescent imaging. For immunofluorescence staining of organoids, intestinal organoids in Matrigel were fixed with 4% paraformaldehyde, then transferred to centrifuge tube. After washing with PBS, the isolated organoids were permeabilized with 1% Triton X followed by incubation with blocking buffer (1% BSA+3% Donkey Serum+0.2% Triton X in PBS) at RT. The organoids were then stained with primary antibodies and fluorescent dye-labeled secondary antibodies as well as with DAPI. Slides were covered with […] ® Mounting Media (VECTOR). […] Images were acquired with a confocal laser scanning microscope (Nikon Eclipse 90i). For the analysis of Lysozyme+ cells per organoid area, the number of counted Lysozyme+ cells were normalized to measured organoid surface area. Image J was used for the data analysis.
The test system of the next experiment is ISC-enriched organoids. As to the kind of experiment: Secondary (validation) screen, 384-well 2.5-D, ENR+CD 6 days, n=8 wells, vs ENR+CD+DMSO control: carbachol-induced lysozyme secretion (LYZ.S). The format is cell-based, murine.
The subject of the next experiment is lysozyme (LYZ). As to the kind of experiment: Western blotting of lysozyme in 3D-cultured intestinal organoids. The note with it: organoids cultured 6 days in ENR+CV, ENR+CD or ENR. The format is cell-based, murine. From the text: Western blotting. ISC-enriched organoids cultured in 3D Matrigel with ENRCV media were passaged to 24-well plate in 3D Matrigel with ENRCV. At day zero, media were replaced to ENR or ENRCD with or without indicated compounds, and media were replaced every other day. At day six, cells were harvested from Matrigel by mechanical disruption and suspended in basal media. Cell pellets were lysed with Pierce© IP lysis buffer (ThermoFisher, 87787) containing Halt™ Protease Inhibitor Cocktail, EDTA-Free (ThermoFisher, 87785) after 3-minute centrifuge at 300×g at 4° C. Cell extracts were resolved by NuPAGE© SDS-PAGE Gel system (ThermoFisher) and electroblotted onto polyvinylidene difluoride membranes using Criterion™ Blotter (Biorad). The membranes were blocked with 2% Blotting-Grade Blocker (Biorad, 1706404) in TBS-T (50 mM Tris-HCl, 150 mM NaCl, and 0.1% Tween 20, pH 8.0) and then probed with appropriate antibodies. Detection was performed using ECL Select™ Western Blotting Detection Reagent (Amersham, 45-000-999) and ImageQuant LAS4000 (GE Healthcare).
Western blotting. Organoid-containing gel was homogenized in basal medium and centrifuged at 300 rcf for 3 min. Organoid pellet was lysed with ice-cold Pierce IP Lysis Buffer (Thermo Fisher Scientific, #87787) containing Halt Protease Inhibitor Cocktail, EDTA-Free (Thermo Fisher Scientific, #87785) and incubated on ice for 20 min. The lysate was centrifuged at 17,000 rcf for 10 min, and the supernatant was combined with NuPAGE LDS Sample Buffer (Thermo Fisher Scientific, NP0007). Protein concentration was determined by Pierce 660 nm Protein Assay (Thermo Fisher Scientific, #22660) and normalized to the lowest concentration among each sample set. […] Chemiluminescent signals were detected by LAS4000 (GE Healthcare) using Amersham ECL Select Western Blotting Detection Reagent (GE Healthcare, #45-000-999), and total protein signals were obtained by Odyssey Imaging System (LI-COR Biosciences) using REVERT Total Protein Stain Kit (LI-COR Biosciences, #926-11010).
(In western blotting, separated proteins are transferred to a membrane and probed.)

In the case of `O=C(/C=C\n1cnc(-c2cc(C(F)(F)F)cc(C(F)(F)F)c2)n1)NNc1cnccn1` [KPT-330], the “LYZ+ cell abundance (IF imaging)” value in experiment [1] is “increased LYZ+ cell abundance”. Also, the Z.LYZ.S in the experiment on ISC-enriched organoids (Dose 0.02 uM) is −0.028; in the experiment with ISC-enriched organoids (Dose 0.04 uM), −0.587; with ISC-enriched organoids (dose 0.08 uM), 1.031. For the same compound, the repSSMD.LYZ.S was −0.044 in the experiment on ISC-enriched organoids (Dose 0.02 uM), −0.955 with ISC-enriched organoids (Dose 0.04 uM) and 1.678 with ISC-enriched organoids (dose 0.08 uM). Further, in the experiment on ISC-enriched organoids (validated doses, secondary screen), the “increase in LYZ.S (stimulated LYZ secretion) relative to ENR+CD control” value is 50-75%. The “LYZ abundance per unit protein (Western blotting)” value with lysozyme (LYZ) is listed as “appreciably increase LYZ abundance”.
